The values that follow come from patent US8501809B2, “Inhibitors of α4 mediated cell adhesion” (Mitsubishi Tanabe Pharma Corporation, priority 2000, dated 2013).

By melting point is commonly meant the temperature of the solid-liquid transition.

As to `CCOCc1cc(OC)c(-c2ccc(C[C@H](NC(=O)c3c(F)cccc3F)C(=O)OCC)cc2)c(OC)c1` [Example 10, N-(2,6-Difluorobenzoyl)-4-(2,6-dimethoxy-4-ethoxymethylphenyl)-L-phenylalanine ethyl ester], the melting point lay within 87 to 89 °C.
For `COCc1cc(OC)c(-c2ccc(C[C@H](NC(=O)c3c(Cl)cccc3Cl)C(=O)O)cc2)c(OC)c1` [Example 5, N-(2,6-Dichlorobenzoyl)-4-(2,6-dimethoxy-4-methoxymethylphenyl)-L-phenylalanine], the melting point fell in the range of 232 to 235 °C.
Next, `CCOCc1cc(OC)c(-c2ccc(C[C@H](NC(=O)c3c(Cl)cccc3Cl)C(=O)OCC)cc2)c(OC)c1` [Example 1, N-(2,6-Dichlorobenzoyl)-4-(2,6-dimethoxy-4-ethoxymethylphenyl)-L-phenylalanine ethyl ester]: 91 to 94 °C; `CCOCc1cc(OC)c(-c2ccc(C[C@H](NC(=O)c3c(F)cccc3Cl)C(=O)O)cc2)c(OC)c1` [Example 20, N-(2-Chloro-6-fluorobenzoyl)-4-(2,6-dimethoxy-4-ethoxymethylphenyl)-L-phenylalanine]: 182 to 184 °C.
The same measure for `CCOCCc1cc(OC)c(-c2ccc(C[C@H](NC(=O)c3c(F)cccc3F)C(=O)O)cc2)c(OC)c1` [Example 31, N-(2,6-Difluorobenzoyl)-4-[2,6-dimethoxy-4-(2-ethoxyethyl)phenyl]-L-phenylalanine]: 63 to 70 °C; for `CCCOCc1cc(OC)c(-c2ccc(C[C@H](NC(=O)c3c(Cl)cccc3Cl)C(=O)O)cc2)c(OC)c1` [Example 7, N-(2,6-Dichlorobenzoyl)-4-(2,6-dimethoxy-4-n-propoxymethylphenyl)-L-phenylalanine]: 183 to 186 °C.
In the case of `CCOCc1cc(OC)c(-c2ccc(C[C@H](NC(=O)c3c(Cl)cccc3Cl)C(=O)O)cc2)c(OC)c1` [Example 3, N-(2,6-Dichlorobenzoyl)-4-(2,6-dimethoxy-4-ethoxymethylphenyl)-L-phenylalanine], the melting point lay within 196 to 198 °C.
In turn, `COCc1cc(OC)c(-c2ccc(C[C@H](NC(=O)c3c(F)cccc3Cl)C(=O)O)cc2)c(OC)c1` [Example 23, N-(2-Chloro-6-fluorobenzoyl)-4-(2,6-dimethoxy-4-methoxymethylphenyl)-L-phenylalanine] displayed a melting point of 170 to 175 °C.
